From patent US20110077294A1, “R-(-) / S-(+)-7-[3-N SUBSTITUTED AMINO-2 HYDROXYPROPOXY] FLAVONES” (priority 2006, published 2011)
Marks after values point to notes of the source that are not given here.

Experiments:
C57BL/KsBom-db/db mice [1] = assay: Serum lipid profile of treated db/db mice (antidyslipidemic activity); format: in vivo
C57BL/KsBom-db/db mice [2] = assay: Blood glucose profile of db/db mice during daily treatment (antihyperglycemic activity); format: in vivo; conditions: for Blood glucose % change compared to control, day 1: day 1, vs sham; for Blood glucose % change compared to control, day 2: day 2, vs sham; for Blood glucose % change compared to control, day 3: day 3, vs sham; for Blood glucose % change compared to control, day 4: day 4, vs sham
Protocol: C57BL/KsBom-db/db mice (12-18 weeks old), weighing around 35+g bred in the animal house of CDRI, Lucknow, were used in the present experiments. The mice were housed in groups of 3 to 5 (same sex) in a room controlled for temperature (23±2.0 ° C.) and 12/12 hours light/dark cycle (lights on at 6.00 am). Body weight of each animal was measured daily from day 1 to day 10 of the experiment. All animals had free access to fresh water and normal pellet diet except on the day of the postprandial protocol (day 6) and during the overnight fast before the OGTT on day 10. The animals always had access to water during experimental periods. Blood glucose was checked every morning up till day 10. On day 10 an oral glucose tolerance test (OGTT) was performed after an overnight fasting. Blood glucose was measured at −30.0 min and test compounds were administered. The blood glucose was again measured at 0 min just post treatment and at this juncture glucose solution was given at a dose of 3 gm/kg to all the groups including the vehicle treated group. The blood glucose levels were checked at 30 min, 60 min, 90 min and 120 min post glucose administration. The data was analyzed for its significance on Prism software.

[3] = db/db mice, 10 mg/kg, statistically insignificant
[4] = db/db mice, test dose 10 mg/kg, in %
[5] = db/db mice, test dose 25 mg/kg, in %

`CC(C)(C)NC[C@H](O)COc1ccc2c(=O)cc(-c3cc(OCc4ccccc4)cc(OCc4ccccc4)c3)oc2c1` [S-002-853 (S), (S)-(+)-7-(3-tert-Butylamino-2-hydroxypropoxy)-3′,5′-dibenzyloxyflavone] was tested, and the “enhancement of HDL-C as compared to the racemic compound” value (C57BL/KsBom-db/db mice [1]; 25 mg/kg body weight) was “more than two folds”, the “Serum lipid profile: Cholesterol” value (C57BL/KsBom-db/db mice [1]; db/db mice, 10 mg/kg) was 87.5 ± 3.00 mg/dL and the “Serum lipid profile: HDL-Chol” value (C57BL/KsBom-db/db mice [1]; db/db mice, 10 mg/kg) was 66.4 ± 2.87 mg/dL. The “Serum lipid profile: Triglycerides” value (C57BL/KsBom-db/db mice [1]; db/db mice, 10 mg/kg) was 110 ± 4.08 mg/dL, the “Cholesterol % change compared to control” value (C57BL/KsBom-db/db mice [1]; db/db mice, 10 mg/kg, vs sham) was −16.3% and the “HDL-Chol % change compared to control” value (C57BL/KsBom-db/db mice [1]; db/db mice, 10 mg/kg, vs sham) was “+17.4%”. For the same compound, the “Triglycerides % change compared to control” value (C57BL/KsBom-db/db mice [1]; db/db mice, 10 mg/kg, vs sham) was −17.9%, the “elevation in HDL-cholesterol level than control” value (C57BL/KsBom-db/db mice [1]; [3]) was “+17.4%” and the “lowering of serum cholesterol” value (C57BL/KsBom-db/db mice [1]; [3]) was “around 16.3%”. For the same compound, the “lowering of serum triglycerides” value (C57BL/KsBom-db/db mice [1]; [3]) was about 17.9%, the “decrease in LDL-cholesterol level” value (C57BL/KsBom-db/db mice [1]; db/db mice, 25 mg/kg) was “around 29.4%” and the “elevation in HDL-cholesterol level than control” value (C57BL/KsBom-db/db mice [1]; db/db mice, 25 mg/kg) was 33.2%. For the same compound, the “lowering of serum cholesterol” value (C57BL/KsBom-db/db mice [1]; db/db mice, 25 mg/kg) was “around 21.8%”, the “lowering of serum triglycerides” value (C57BL/KsBom-db/db mice [1]; db/db mice, 25 mg/kg) was about 14.5% and the “Comparative antihyperlipidemic activity: HDL-C” value (C57BL/KsBom-db/db mice [1]; db/db mice, test dose 10 mg/kg) was “+17.4^ns”. For the same compound, the “Comparative antihyperlipidemic activity: T-Chol” value (C57BL/KsBom-db/db mice [1]; [4]) was 16.3*, the “Comparative antihyperlipidemic activity: TG” value (C57BL/KsBom-db/db mice [1]; [4]) was 17.9* and the “Comparative antihyperlipidemic activity: HDL-C” value (C57BL/KsBom-db/db mice [1]; [5]) was “+33.2*”. The “Comparative antihyperlipidemic activity: T-Chol” value (C57BL/KsBom-db/db mice [1]; [5]) was 27.8*, the “Comparative antihyperlipidemic activity: TG” value (C57BL/KsBom-db/db mice [1]; [5]) was 14.5** and the “fall in blood glucose profile (in words)” value (C57BL/KsBom-db/db mice [2]; 10 mg/kg) was “not statistically significant on any day post treatment”. For the same compound, the “Blood glucose, day 1 post treatment” value (C57BL/KsBom-db/db mice [2]; 10 mg/kg) was 19.8 ± 2.47 mM, the “Blood glucose % change compared to control, day 1” value (C57BL/KsBom-db/db mice [2]; 10 mg/kg) was −0.9% and the “Blood glucose, day 2 post treatment” value (C57BL/KsBom-db/db mice [2]; 10 mg/kg) was 18.5 ± 2.34 mM. For the same compound, the “Blood glucose % change compared to control, day 2” value (C57BL/KsBom-db/db mice [2]; 10 mg/kg) was −9.60%, the “Blood glucose, day 3 post treatment” value (C57BL/KsBom-db/db mice [2]; 10 mg/kg) was 17.9 ± 2.14 mM and the “Blood glucose % change compared to control, day 3” value (C57BL/KsBom-db/db mice [2]; 10 mg/kg) was −18.6%. For the same compound, the “Blood glucose, day 4 post treatment” value (C57BL/KsBom-db/db mice [2]; 10 mg/kg) was 15.3 ± 2.96 mM, the “Blood glucose % change compared to control, day 4” value (C57BL/KsBom-db/db mice [2]; 10 mg/kg) was −26.8% and the “Blood glucose, day 5 post treatment” value (C57BL/KsBom-db/db mice [2]; 10 mg/kg, day 5) was 13.8 ± 2.98 mM. For the same compound, the “Blood glucose % change compared to control, day 5” value (C57BL/KsBom-db/db mice [2]; 10 mg/kg, day 5, vs sham) was −35.0%, the “Blood glucose, day 6 post treatment” value (C57BL/KsBom-db/db mice [2]; 10 mg/kg, day 6) was 13.1 ± 3.41 mM and the “Blood glucose % change compared to control, day 6” value (C57BL/KsBom-db/db mice [2]; 10 mg/kg, day 6, vs sham) was −40.7%. For the same compound, the “Blood glucose, day 7 post treatment” value (C57BL/KsBom-db/db mice [2]; 10 mg/kg, day 7) was 11.8 ± 3.55 mM, the “Blood glucose % change compared to control, day 7” value (C57BL/KsBom-db/db mice [2]; 10 mg/kg, day 7, vs sham) was −42.0% and the “Blood glucose, day 8 post treatment” value (C57BL/KsBom-db/db mice [2]; 10 mg/kg, day 8) was 12.1 ± 3.39 mM. For the same compound, the “Blood glucose % change compared to control, day 8” value (C57BL/KsBom-db/db mice [2]; 10 mg/kg, day 8, vs sham) was −42.2%, the “Blood glucose, day 9 post treatment” value (C57BL/KsBom-db/db mice [2]; 10 mg/kg, day 9) was 14.2 ± 2.98 mM and the “Blood glucose % change compared to control, day 9” value (C57BL/KsBom-db/db mice [2]; 10 mg/kg, day 9, vs sham) was −39.4%. The “antihyperglycemic and antidyslipidemic/antihyperlipidemic activity (in words)” value (C57BL/KsBom-db/db mice [2]; 25 mg/kg) was “significant antihyperglycemic and antidyslipidemic activity”, the “Blood glucose, day 1 post treatment” value (C57BL/KsBom-db/db mice [2]; 25 mg/kg) was 22.4 ± 1.24 mM and the “Blood glucose % change compared to control, day 1” value (C57BL/KsBom-db/db mice [2]; 25 mg/kg) was “+0.20%”. For the same compound, the “Blood glucose, day 2 post treatment” value (C57BL/KsBom-db/db mice [2]; 25 mg/kg) was 16.6 ± 3.85 mM, the “Blood glucose % change compared to control, day 2” value (C57BL/KsBom-db/db mice [2]; 25 mg/kg) was −33.6% and the “Blood glucose, day 3 post treatment” value (C57BL/KsBom-db/db mice [2]; 25 mg/kg) was 12.9 ± 3.00 mM. For the same compound, the “Blood glucose % change compared to control, day 3” value (C57BL/KsBom-db/db mice [2]; 25 mg/kg) was −39.5%, the “Blood glucose, day 4 post treatment” value (C57BL/KsBom-db/db mice [2]; 25 mg/kg) was 10.6 ± 2.89 mM and the “Blood glucose % change compared to control, day 4” value (C57BL/KsBom-db/db mice [2]; 25 mg/kg) was −54.9%.
